From US20230066011A1, “PYRROLOPYRIMIDINE DERIVATIVE, AND PHARMACEUTICAL COMPOSITION FOR PREVENTING OR TREATING PROTEIN KINASE-RELATED DISEASE COMPRISING SAME AS ACTIVE INGREDIENT” (VORONOI CO., LTD., priority 2019, published 2023)
pIC50: −log10 of the molar value.

Legend:
LRRK2 = LRRK2 (Homo sapiens, UniProt Q5S007); assay: LRRK2 enzyme inhibition, ADP-Glo kinase assay; format: biochemical; parameters: purchased Invitrogen PR8604B; details: ATP 10 μM
Method in brief: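 Purified human LRRK2 (25 ng) with 10 μM ATP and 0.2 μg substrate in 40 mM Tris-HCl pH 7.4, 20 mM MgCl2, 0.5 mg/mL BSA, 50 μM DTT, 2 h at 25° C. ADP-Glo luminescence; 12-point compound series from 50 μM final; IC50 relative to solvent control.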

IL-6 = assay: Inhibition of LPS-induced IL-6 secretion of THP-1 monocytes (ELISA); format: cell-based, human; details: Homo sapiens, THP-1; compound 0.5 μM, LPS 500 ng/mL, 24 hours; read-out: THP1/IL6 (% inhib)
Method in brief: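 THP-1 monocytes grown 16 h at 37 °C, pretreated 1 h with compound at final 0.5 μM, then stimulated with LPS at final 500 ng/mL for 24 h. IL-6 and TNF-α in culture supernatant measured by ELISA (OD 450 nm).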

human GST-DYRK1A = molecular target: T1, human GST-DYRK1A (Homo sapiens, UniProt Q13627); assay: GST-DYRK1A enzyme inhibition, ADP-Glo kinase assay; format: biochemical; details: ATP 10 μM, GST-DYRK1A full length, read-out: DYRK1 IC50
T1 construct: purified human GST-DYRK1A (full length, Thermo Scientifics) enzyme; purchased Thermo Scientifics
Method in brief: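 Full-length human GST-DYRK1A (10 ng) with 10 μM ATP and specific substrate in 40 mM Tris-HCl pH 7.4, 20 mM MgCl2, 0.5 mg/mL BSA, 50 μM DTT, 1 h at 25 °C. ADP formation read by ADP-Glo luminescence relative to solvent control; IC50 from three data sets.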

LRRK2 (G2019S) = LRRK2 (G2019S) (Homo sapiens, UniProt Q5S007, G2019S); assay: LRRK2 G2019S enzyme inhibition, ADP-Glo kinase assay; format: biochemical; parameters: purchased SignalChem L10-12GG; details: ATP 25 μM
Sequence of LRRK2 (G2019S) (Q5S007 970-2527 G2019S limits assumed): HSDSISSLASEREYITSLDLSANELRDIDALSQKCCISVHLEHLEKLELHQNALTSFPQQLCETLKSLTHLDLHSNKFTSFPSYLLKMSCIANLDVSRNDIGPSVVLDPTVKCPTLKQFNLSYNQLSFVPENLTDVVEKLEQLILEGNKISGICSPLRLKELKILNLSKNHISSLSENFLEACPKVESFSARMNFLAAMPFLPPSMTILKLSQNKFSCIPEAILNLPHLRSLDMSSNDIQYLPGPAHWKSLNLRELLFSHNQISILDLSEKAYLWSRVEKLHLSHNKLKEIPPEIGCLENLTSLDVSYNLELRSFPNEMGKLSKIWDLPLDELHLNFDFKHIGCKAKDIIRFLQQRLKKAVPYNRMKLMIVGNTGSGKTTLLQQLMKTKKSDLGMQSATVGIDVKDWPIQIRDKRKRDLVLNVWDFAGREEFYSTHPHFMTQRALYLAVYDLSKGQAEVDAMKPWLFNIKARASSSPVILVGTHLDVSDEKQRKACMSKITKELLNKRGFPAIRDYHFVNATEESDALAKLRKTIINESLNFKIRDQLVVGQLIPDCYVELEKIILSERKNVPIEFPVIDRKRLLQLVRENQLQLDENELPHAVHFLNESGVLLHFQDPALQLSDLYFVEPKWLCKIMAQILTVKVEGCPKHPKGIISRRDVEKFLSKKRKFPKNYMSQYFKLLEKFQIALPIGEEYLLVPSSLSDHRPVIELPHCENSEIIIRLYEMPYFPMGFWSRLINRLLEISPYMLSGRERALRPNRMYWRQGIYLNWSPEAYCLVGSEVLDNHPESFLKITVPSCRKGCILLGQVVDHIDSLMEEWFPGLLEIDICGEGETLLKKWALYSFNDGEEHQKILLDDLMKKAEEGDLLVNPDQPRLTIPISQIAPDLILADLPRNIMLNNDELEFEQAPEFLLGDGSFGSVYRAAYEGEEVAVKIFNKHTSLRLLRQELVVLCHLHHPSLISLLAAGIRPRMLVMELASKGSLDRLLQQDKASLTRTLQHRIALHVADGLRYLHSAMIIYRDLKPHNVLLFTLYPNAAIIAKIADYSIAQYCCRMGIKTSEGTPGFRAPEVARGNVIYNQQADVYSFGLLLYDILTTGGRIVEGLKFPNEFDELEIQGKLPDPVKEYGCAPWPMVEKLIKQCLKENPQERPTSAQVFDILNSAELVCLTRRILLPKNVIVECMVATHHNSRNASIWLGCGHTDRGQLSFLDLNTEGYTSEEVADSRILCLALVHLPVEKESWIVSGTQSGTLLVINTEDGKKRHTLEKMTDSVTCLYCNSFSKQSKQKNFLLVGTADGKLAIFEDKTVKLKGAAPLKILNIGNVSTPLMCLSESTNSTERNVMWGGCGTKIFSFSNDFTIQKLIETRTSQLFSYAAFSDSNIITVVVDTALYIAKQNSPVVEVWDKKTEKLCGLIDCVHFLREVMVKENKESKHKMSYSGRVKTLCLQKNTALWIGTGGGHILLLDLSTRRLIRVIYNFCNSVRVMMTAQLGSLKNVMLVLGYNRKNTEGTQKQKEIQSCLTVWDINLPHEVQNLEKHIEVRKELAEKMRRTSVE
Method in brief: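 Purified human LRRK2 G2019S (16 ng) with 25 μM ATP and 0.2 μg substrate, 2 h at 25° C. in Tris-HCl pH 7.4, MgCl2, BSA, DTT buffer; compounds at 12 final concentrations, 50 μM down to 0.000001024 μM. ADP-Glo luminescence versus solvent control gave IC50.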

Sequence of LRRK2 (Q5S007 970-2527 limits assumed): as the sequence (Q5S007 970-2527 G2019S limits assumed) above, with S1050G counted along it

CCN1CCP(=O)(c2ccc(Nc3nc(C4CC4)c4c(C#N)c[nH]c4n3)c(OC)c2)CC1 [Example 261]
pIC50 (LRRK2): > 7.00

COc1cc(S(=O)(=O)N2CCOCC2)ccc1Nc1nc(C2CC2)c2c(C#N)c[nH]c2n1 [Example 223, 4-cyclopropyl-2-((2-methoxy-4-(morpholinosulfonyl)phenyl)amino)-7H-pyrrolo[2,3-d]pyrimidine-5-carbonitrile]
pIC50 (LRRK2): 6.52 to 7.00

O=C(c1ccc(Nc2nc(NC3CCC3)c3c(C(F)(F)F)c[nH]c3n2)c2c1OCCO2)N1CCN(C2COC2)CC1 [Example 407, (8-((4-(cyclo-butylamino)-5-(trifluoromethyl)-7H-pyrrolo[2,3-d]pyrimidin-2-yl)amino)-2,3-dihydrobenzo[b] [1,4]dioxin-5-yl) (4-(oxetan-3-yl)piperazin-1-yl)methanone]
inhibition at 0.5 µM (IL-6): 20.2%
pIC50 (LRRK2): > 7.00
pIC50 (human GST-DYRK1A): > 7.00

COCCNc1nc(Nc2ccc(P3(=O)CCN(C4CCOCC4)CC3)cc2OC)nc2[nH]cc(C(F)(F)F)c12 [Example 444, 4-(3-methoxy-4-((4-((2-methoxyethyl)amino)-5-(trifluoromethyl)-7H-pyrrolo[2,3-d]pyrimidin-2-yl)amino)phenyl)-1-(tetrahydro-2H-pyran-4-yl)-1,4-azaphosphinane 4-oxide]
inhibition at 0.5 µM (IL-6): 20%
pIC50 (LRRK2): > 7.00
pIC50 (human GST-DYRK1A): > 7.00

CNc1nc(Nc2ccc(C(=O)N3CCC(N4CCOCC4)CC3)c3c2OCCO3)nc2[nH]cc(C(F)(F)F)c12 [Example 238, (8-((4-(methylamino)-5-(trifluoromethyl)-7H-pyrrolo[2,3-d]pyrimidin-2-yl)amino)-2,3-dihydrobenzo[b][1,4]dioxin-5-yl)(4-morpholinopiperidin-1-yl)methanone]
pIC50 (LRRK2 (G2019S)): > 7.00
pIC50 (LRRK2): > 7.00
pIC50 (human GST-DYRK1A): > 7.00

CNc1nc(Nc2ccc(S(=O)(=O)N3CCC(N4CCOCC4)CC3)cc2OC)nc2[nH]cc(C(F)(F)F)c12 [Example 157, N^2-(2-methoxy-4-((4-morpholinopiperidin-1-yl)sulfonyl)phenyl)-N^4-methyl-5-(trifluoromethyl)-7H-pyrrolo[2,3-d]pyrimidine-2,4-diamine 2,2,2-trifluoroacetate]
inhibition at 0.5 µM (IL-6): 1.6%
pIC50 (LRRK2 (G2019S)): > 7.00
pIC50 (human GST-DYRK1A): > 7.00

O=C(c1ccc(Nc2nc(NC3CCCCC3)c3c(C(F)(F)F)c[nH]c3n2)c2c1OCCO2)N1CCN(C2COC2)CC1 [Example 415, (8-((4-(cyclo-hexylamino)-5-(trifluoromethyl)-7H-pyrrolo[2,3-d]pyrimidin-2-yl)amino)-2,3-dihydrobenzo[b] [1,4]dioxin-5-yl) (4-(oxetan-3-yl)piperazin-1-yl)methanone]
pIC50 (LRRK2 (G2019S)): 6.00 to 6.52
pIC50 (human GST-DYRK1A): 6.00 to 6.52

COc1cc(S(=O)(=O)N2CCC(N3CCOCC3)CC2)ccc1Nc1nc(C2CC2)c2c(C(F)(F)F)c[nH]c2n1 [Example 226]
pIC50 (LRRK2 (G2019S)): 6.52 to 7.00
pIC50 (LRRK2): 6.52 to 7.00

O=C(c1ccc(Nc2nc(NC3CC3)c3c(C(F)(F)F)c[nH]c3n2)c2c1OCCO2)N1CCN(C2COC2)CC1 [Example 405, (8-((4-(cyclo-propylamino)-5-(trifluoromethyl)-7H-pyrrolo[2,3-d]pyrimidin-2-yl)amino)-2,3-dihydrobenzo[b] [1,4]dioxin-5-yl) (4-(oxetan-3-yl)piperazin-1-yl)methanone]
pIC50 (LRRK2 (G2019S)): > 7.00
pIC50 (LRRK2): > 7.00
pIC50 (human GST-DYRK1A): > 7.00

CCNc1nc(Nc2ccc(S(=O)(=O)N3CCC(N4CCOCC4)CC3)cc2OC)nc2[nH]cc(C(F)(F)F)c12 [Example 158, N^4-ethyl-N^2-(2-methoxy-4-((4-morpholinopiperidin-1-yl)sulfonyl)phenyl)-5-(trifluoromethyl)-7H-pyrrolo[2,3-d]pyrimidine-2,4-diamine 2,2,2-trifluoroacetate]
pIC50 (LRRK2 (G2019S)): > 7.00
pIC50 (LRRK2): > 7.00

CNc1nc(Nc2ccc(P3(=O)CCN(C4CC4)CC3)cc2OC)nc2[nH]cc(C(F)(F)F)c12 [Example 411, 1-cyclopropyl-4-(3-methoxy-4-((4-(methylamino)-5-(trifluoromethyl)-7H-pyrrolo[2,3-d]pyrimidin-2-yl)amino)phenyl)-1,4-azaphosphinane-4-oxide]
pIC50 (LRRK2): > 7.00
pIC50 (human GST-DYRK1A): 6.52 to 7.00

COc1cc(S(=O)(=O)N2CCC(N3C[C@H]4C[C@@H]3CO4)CC2)ccc1Nc1nc(C2CC2)c2c(C(F)(F)F)c[nH]c2n1 [Example 473, N-(4-((4-((1R,4R)-2-oxa-5-azabicyclo[2.2.1]heptan-5-yl)piperidin-1-yl)sulfonyl)-2-methoxyphenyl)-4-cyclopropyl-5-(trifluoromethyl)-7H-pyrrolo[2,3-d]pyrimidin-2-amine]
inhibition at 0.5 µM (IL-6): 31%

N#Cc1c[nH]c2nc(Nc3ccc(C(=O)N4CCOCC4)c4c3OCCO4)nc(NCC3CCCC3)c12 [Example 133, 4-((cyclopentylmethyl)amino)-2-((8-(morpholine-4-carbonyl)-2,3-dihydrobenzo[b][1,4]dioxin-5-yl)amino)-7H-pyrrolo[2,3-d]pyrimidine-5-carbonitrile]
pIC50 (LRRK2): > 7.00
pIC50 (human GST-DYRK1A): 6.00 to 6.52

COc1cc(S(=O)(=O)N2CCC(N3CCOCC3)CC2)ccc1Nc1nc(C2CC2)c2c(C#N)c[nH]c2n1 [Example 224, 4-cyclopropyl-2-((2-methoxy-4-((4-morpholinopiperidin-1-yl)sulfonyl)phenyl)amino)-7H-pyrrolo[2,3-d]pyrimidine-5-carbonitrile]
pIC50 (LRRK2): > 7.00

COCCNc1nc(Nc2ccc(C(=O)N3CCC(N4CCOCC4)CC3)c3c2OCC3)nc2[nH]cc(C#N)c12 [Example 359, 4-((2-methoxy-ethyl)ami-no)-2-((4-(4-morpholino-piperidine-1-carbonyl)-2,3-dihydro-benzofuran-7-yl)amino)-7H-pyrrolo[2,3-d]pyrimidine-5-carbonitrile]
inhibition at 0.5 µM (IL-6): 32%
pIC50 (human GST-DYRK1A): > 7.00

COc1cc(P2(=O)CCN(C3CC3)CC2)ccc1Nc1nc(NC2CCCC2)c2c(C(F)(F)F)c[nH]c2n1 [Example 413]
pIC50 (LRRK2 (G2019S)): 6.00 to 6.52
pIC50 (human GST-DYRK1A): 6.00 to 6.52

CCNc1nc(Nc2cc(F)c(S(=O)(=O)N3CCC(N4CCOCC4)CC3)cc2OC)nc2[nH]cc(C(F)(F)F)c12 [Example 232, N^4-ethyl-N^2-(5-fluoro-2-methoxy-4-((4-morpholinopiperidin-1-yl)sulfonyl)phenyl)-5-(trifluoromethyl)-7H-pyrrolo[2,3-d]pyrimidine-2,4-diamine]
pIC50 (LRRK2 (G2019S)): > 7.00
pIC50 (human GST-DYRK1A): 6.00 to 6.52

CCNc1nc(Nc2ccc(C(=O)N3CCN(C4COC4)CC3)c3c2OCCO3)nc2[nH]cc(C(F)(F)F)c12 [Example 400, (8-((4-(ethylamino)-5-(trifluoromethyl)-7H-pyrrolo[2,3-d]pyrimidin-2-yl)amino)-2,3-dihydrobenzo[b] [1,4]dioxin-5-yl) (4-(oxetan-3-yl)piperazin-1-yl)methanone]
inhibition at 0.5 µM (IL-6): 24.7%
pIC50 (LRRK2 (G2019S)): > 7.00
pIC50 (human GST-DYRK1A): > 7.00

CCCNc1nc(Nc2ccc(S(=O)(=O)N3CCC(N4CCOCC4)CC3)cc2OC)nc2[nH]cc(C(F)(F)F)c12 [Example 161, N^2-(2-methoxy-4-((4-morpholinopiperidin-1-yl)sulfonyl)phenyl)-N^4-propyl-5-(trifluoromethyl)-7H-pyrrolo[2,3-d]pyrimidine-2,4-diamine]
pIC50 (LRRK2 (G2019S)): 6.52 to 7.00
pIC50 (LRRK2): > 7.00

N#Cc1c[nH]c2nc(Nc3ccc(C(=O)N4CCC(N5CCOCC5)CC4)c4c3OCCO4)nc(C3CC3)c12 [Example 221, 4-cyclopropyl-2-((8-(4-morpholinopiperidine-1-carbonyl)-2,3-dihydrobenzo[b][1,4]dioxin-5-yl)amino)-7H-pyrrolo[2,3-d]pyrimidine-5-carbonitrile]
pIC50 (LRRK2): > 7.00
pIC50 (human GST-DYRK1A): > 7.00

CCCNc1nc(Nc2ccc(C(=O)N3CCC(N4CCOCC4)CC3)c3c2OCCO3)nc2[nH]cc(C#N)c12 [Example 138, 2-((8-(4-morpholinopiperidine-1-carbonyl)-2,3-dihydrobenzo[b][1,4]dioxin-5-yl)amino)-4-(propylamino)-7H-pyrrolo[2,3-d]pyrimidine-5-carbonitrile]
pIC50 (LRRK2 (G2019S)): > 7.00
pIC50 (LRRK2): > 7.00
pIC50 (human GST-DYRK1A): 6.52 to 7.00

O=C(c1ccc(Nc2nc(C3CC3)c3c(C(F)(F)F)c[nH]c3n2)c2c1OCCO2)N1CCC(N2CCOCC2)CC1 [Example 228, (8-((4-cyclopropyl-5-(trifluoromethyl)-7H-pyrrolo[2,3-d]pyrimidin-2-yl)amino)-2,3-dihydrobenzo[b][1,4]dioxin-5-yl)(4-morpholinopiperidin-1-yl)methanone]
pIC50 (LRRK2 (G2019S)): > 7.00
pIC50 (LRRK2): > 7.00

CNc1nc(Nc2cc(F)c(S(=O)(=O)N3CCC(N4CCOCC4)CC3)cc2OC)nc2[nH]cc(C(F)(F)F)c12 [Example 231, N^2-(5-fluoro-2-methoxy-4-((4-morpholinopiperidin-1-yl)sulfonyl)phenyl)-N^4-methyl-5-(trifluoromethyl)-7H-pyrrolo[2,3-d]pyrimidine-2,4-diamine]
pIC50 (LRRK2 (G2019S)): > 7.00
pIC50 (human GST-DYRK1A): 6.52 to 7.00
